Source: article PMC10747430, “^99mTc-Labeled Cyclic Peptide Targeting PD-L1 as a Novel Nuclear Imaging Probe” (Pharmaceutics, 2023)

Molecular target: T1, human integrin αVβ3 protein (Homo sapiens, UniProt P05106+P06756)
T1 construct: purchased Chemicom, Merck
Assay: Radio-SDS-PAGE with integrin (negative control protein)
Type: binding
Conditions: radiopeptide incubated with integrin αVβ3 (200 µg/mL) 30 min at 37 °C, radio-TLC scan
Procedure: SDS-PAGE gel electrophoresis was performed. Radioactivity distribution was determined using a radio-TLC scanner (Mini-Gita, 60–150 keV, BGO-Crystal, window 25 × 2 mm, thickness 5 mm, resolution optimized for Tc-99m; RayTest, Munich, Germany) to detect [^99mTc]Tc-iPD-L1 and [^99mTc]Tc-WL12 binding to PD-L1 protein.
Briefly, ^99mTc-labeled WL12 and iPD-L1 solutions (100 µL) (1 mg/mL peptide) were incubated with human recombinant PD-L1 protein (100 µL) (200 µg/mL; FineTest; Cat: P6857) (radiopeptide-PD-L1 interaction) or human integrin αVβ3 protein (100 µL) (negative control; 200 µg/mL) (Chemicom, Merck; Burlington, MA, USA) (radiopeptide-integrin interaction) for 30 min at 37 °C, after which the samples were diluted with Laemmli sample buffer (containing 10% SDS, Tris-Cl 125 mM, pH = 6.8, 12.5% glycerol and 0.005% bromophenol blue after dye) to give final protein concentrations of 25 µg/mL. […] Finally, the radioactivity distribution on the gels was scanned using a radio-TLC detector to determine the percentage of [^99mTc]Tc-iPD-L1 or [^99mTc]Tc-WL12 radioactivity associated with proteins.
In vitro-specific recognition of [^99mTc]Tc-iPD-L1 and [^99mTc]Tc-WL12 by the PD-L1 protein was performed using a combination of radio-TLC and SDS-PAGE (radio-SDS-PAGE). […] Therefore, the radioactivity associated with free peptides is in the front of the gel plate (around 60–70 mm). […]

T1 sequence (P06756 31-889 limits assumed): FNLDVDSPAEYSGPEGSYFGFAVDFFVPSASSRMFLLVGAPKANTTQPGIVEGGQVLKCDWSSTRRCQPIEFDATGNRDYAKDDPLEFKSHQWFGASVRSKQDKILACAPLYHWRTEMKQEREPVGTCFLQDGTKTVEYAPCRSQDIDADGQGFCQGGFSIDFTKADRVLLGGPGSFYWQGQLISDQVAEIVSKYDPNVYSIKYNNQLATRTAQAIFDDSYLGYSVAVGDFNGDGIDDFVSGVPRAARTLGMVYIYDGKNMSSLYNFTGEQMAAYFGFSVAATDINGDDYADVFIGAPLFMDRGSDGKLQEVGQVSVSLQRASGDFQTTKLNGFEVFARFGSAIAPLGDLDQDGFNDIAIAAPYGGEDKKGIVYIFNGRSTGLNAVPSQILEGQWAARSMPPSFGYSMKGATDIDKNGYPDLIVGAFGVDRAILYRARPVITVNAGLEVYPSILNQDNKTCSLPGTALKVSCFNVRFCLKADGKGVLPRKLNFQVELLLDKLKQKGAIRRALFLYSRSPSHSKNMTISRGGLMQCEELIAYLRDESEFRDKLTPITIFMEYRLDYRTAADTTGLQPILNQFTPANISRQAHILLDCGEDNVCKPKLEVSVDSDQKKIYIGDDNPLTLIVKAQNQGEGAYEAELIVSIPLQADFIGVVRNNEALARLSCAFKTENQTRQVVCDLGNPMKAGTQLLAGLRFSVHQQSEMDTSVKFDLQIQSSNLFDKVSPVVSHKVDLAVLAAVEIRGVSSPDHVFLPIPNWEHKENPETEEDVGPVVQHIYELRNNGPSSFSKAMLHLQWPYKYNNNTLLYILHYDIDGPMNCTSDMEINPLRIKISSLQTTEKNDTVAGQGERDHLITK
T1 sequence (P06756 891-1048 limits assumed): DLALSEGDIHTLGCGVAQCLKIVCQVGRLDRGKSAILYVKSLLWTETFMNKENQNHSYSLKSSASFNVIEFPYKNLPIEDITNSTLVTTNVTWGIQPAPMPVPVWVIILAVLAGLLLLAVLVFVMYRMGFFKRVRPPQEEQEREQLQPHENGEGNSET
T1 sequence (P05106 27-788): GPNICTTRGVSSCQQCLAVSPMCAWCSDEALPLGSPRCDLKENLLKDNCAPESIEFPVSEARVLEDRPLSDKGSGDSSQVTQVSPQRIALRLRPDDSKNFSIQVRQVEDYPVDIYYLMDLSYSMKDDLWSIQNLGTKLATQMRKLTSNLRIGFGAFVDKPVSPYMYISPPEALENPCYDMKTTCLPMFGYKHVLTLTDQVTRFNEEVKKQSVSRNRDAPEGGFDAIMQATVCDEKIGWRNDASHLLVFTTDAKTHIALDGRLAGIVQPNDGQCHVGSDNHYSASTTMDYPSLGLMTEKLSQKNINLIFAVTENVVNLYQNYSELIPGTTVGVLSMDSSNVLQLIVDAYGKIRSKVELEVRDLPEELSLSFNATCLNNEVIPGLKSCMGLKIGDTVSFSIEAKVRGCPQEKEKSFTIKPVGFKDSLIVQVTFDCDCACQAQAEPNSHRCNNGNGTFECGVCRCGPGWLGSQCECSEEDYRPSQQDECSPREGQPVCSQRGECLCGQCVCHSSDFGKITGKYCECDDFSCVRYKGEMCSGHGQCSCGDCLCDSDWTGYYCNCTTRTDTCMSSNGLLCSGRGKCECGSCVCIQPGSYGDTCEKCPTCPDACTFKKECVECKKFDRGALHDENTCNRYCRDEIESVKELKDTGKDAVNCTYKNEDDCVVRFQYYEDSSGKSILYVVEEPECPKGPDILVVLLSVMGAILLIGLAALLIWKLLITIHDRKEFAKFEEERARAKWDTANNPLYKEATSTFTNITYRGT

CCCC[C@H]1C(=O)N(C)[C@@H](CCCC)C(=O)N[C@@H](CCCNC(=O)c2ccc(NN)nc2)C(=O)N[C@H](C(=O)NCC(N)=O)CSCC(=O)N[C@@H](Cc2ccc(O)cc2)C(=O)N(C)[C@@H](C)C(=O)N[C@@H](CC(N)=O)C(=O)N2CCC[C@H]2C(=O)N[C@@H](Cc2c[nH]cn2)C(=O)N[C@@H](CC(C)C)C(=O)N2C[C@H](O)C[C@H]2C(=O)N[C@@H](Cc2c[nH]c3ccccc23)C(=O)N[C@@H](CO)C(=O)N[C@@H](Cc2cn(C)c3ccccc23)C(=O)N1C [[^99mTc]Tc-WL12, metal not drawn]
shift in radioactivity with integrin (negative control): no shift in radioactivity
